Assay results as given in PubChem BioAssay (NCI).
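Tested at 5 concentrations; 48 h exposure; 96-well plates; endpoints linearly interpolated, else capped at highest concentration. TGI: total growth inhibition.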

Experiments:
Assay in all cases: DTP human tumour cell line panel, 48 h
[1] = system: SK-MEL-2 melanoma
[2] = system: OVCAR-8 ovarian
[3] = system: COLO 205 colon
[4] = system: UACC-257 melanoma
[5] = system: A549 NSCLC
[6] = system: SK-MEL-28 melanoma
[7] = system: OVCAR-3 ovarian
[8] = system: PC-3 prostate
[9] = system: NCI-H23 lung
[10] = system: SNB-19 CNS
[11] = system: SK-OV-3 ovarian
[12] = system: EKVX NSCLC
[13] = system: SNB-75 CNS
[14] = system: MOLT-4 leukemia
[15] = system: IGROV1 ovarian
[16] = system: HCC-2998 colon
[17] = system: HT29 colon
[18] = system: HOP-92 NSCLC
[19] = system: RXF 393 renal
[20] = system: SK-MEL-5 melanoma
[21] = system: HL-60(TB) leukemia
[22] = system: NCI-H522 lung
[23] = system: K-562 leukemia
[24] = system: A498 renal
[25] = system: UO-31 renal
[26] = system: SF-268 CNS
[27] = system: HCT-116 colon
[28] = system: SN12C renal
[29] = system: NCI-H460 lung
[30] = system: HCT-15 colon
[31] = system: T-47D breast
[32] = system: TK-10 renal
[33] = system: MCF7 breast
[34] = system: OVCAR-5 ovarian
[35] = system: KM12 colon
[36] = system: ACHN renal
[37] = system: LOX IMVI melanoma
[38] = system: OVCAR-4 ovarian
[39] = system: CCRF-CEM leukemia
[40] = system: MDA-N
[41] = system: CAKI-1 renal
[42] = system: MALME-3M melanoma
[43] = system: SF-295 CNS
[44] = system: SW-620 colon
[45] = system: SF-539 CNS
[46] = system: HOP-62 NSCLC
[47] = system: BT-549 breast
[48] = system: HS 578T breast
[49] = system: RPMI-8226 leukemia
[50] = system: M14 melanoma
[51] = system: U251 CNS
[52] = system: DU-145 prostate
[53] = system: NCI-H226 lung
[54] = system: 786-0 renal
[55] = system: SR leukemia
[56] = system: NCI/ADR-RES ovarian
[57] = system: MDA-MB-435
[58] = system: MDA-MB-231 breast
[59] = system: UACC-62 melanoma

Fc1ccc(F)c(C=NC23CC4CC(CC(C4)C2)C3)c1
TGI [1]: > 10 µM
TGI [2]: > 10 µM
TGI [3]: > 10 µM
TGI [4]: > 10 µM
TGI [5]: > 10 µM
TGI [6]: > 10 µM
TGI [7]: > 10 µM
TGI [8]: > 10 µM
TGI [9]: > 10 µM
TGI [10]: > 10 µM
TGI [11]: > 10 µM
TGI [12]: > 10 µM
TGI [13]: > 10 µM
TGI [14]: > 10 µM
TGI [15]: > 10 µM
TGI [16]: > 10 µM
TGI [17]: > 10 µM
TGI [18]: > 10 µM
TGI [19]: > 10 µM
TGI [20]: > 10 µM
TGI [21]: 6.94 µM
TGI [22]: > 10 µM
TGI [23]: > 10 µM
TGI [24]: > 10 µM
TGI [25]: > 10 µM
TGI [26]: > 10 µM
TGI [27]: > 10 µM
TGI [28]: > 10 µM
TGI [29]: > 10 µM
TGI [30]: > 10 µM
TGI [31]: > 10 µM
TGI [32]: > 10 µM
TGI [33]: > 10 µM
TGI [34]: > 10 µM
TGI [35]: > 10 µM
TGI [36]: > 10 µM
TGI [37]: > 10 µM
TGI [38]: > 10 µM
TGI [39]: > 10 µM
TGI [40]: > 10 µM
TGI [41]: > 10 µM
TGI [42]: > 10 µM
TGI [43]: > 10 µM
TGI [44]: > 10 µM
TGI [45]: > 10 µM
TGI [46]: > 10 µM
TGI [47]: > 10 µM
TGI [48]: > 10 µM
TGI [49]: > 10 µM
TGI [50]: > 10 µM
TGI [51]: > 10 µM
TGI [52]: > 10 µM
TGI [53]: > 10 µM
TGI [54]: > 10 µM
TGI [55]: > 10 µM
TGI [56]: > 10 µM

CC(C)(Sc1cc(C(C)(C)C)c(O)c(C(C)(C)C)c1)Sc1cc(C(C)(C)C)c(O)c(C(C)(C)C)c1
TGI [1]: > 100 µM
TGI [2]: > 100 µM
TGI [3]: > 100 µM
TGI [4]: > 100 µM
TGI [5]: > 100 µM
TGI [6]: > 100 µM
TGI [8]: > 100 µM
TGI [9]: > 100 µM
TGI [10]: > 100 µM
TGI [11]: > 100 µM
TGI [12]: > 100 µM
TGI [13]: > 100 µM
TGI [15]: > 100 µM
TGI [17]: > 100 µM
TGI [57]: > 100 µM
TGI [19]: > 100 µM
TGI [20]: > 100 µM
TGI [21]: 3.08 µM
TGI [22]: > 100 µM
TGI [23]: 3.35 µM
TGI [24]: > 100 µM
TGI [25]: > 100 µM
TGI [26]: > 100 µM
TGI [27]: > 100 µM
TGI [28]: > 100 µM
TGI [29]: > 100 µM
TGI [30]: > 100 µM
TGI [31]: > 100 µM
TGI [32]: > 100 µM
TGI [33]: > 100 µM
TGI [34]: > 100 µM
TGI [35]: > 100 µM
TGI [58]: > 100 µM
TGI [36]: > 100 µM
TGI [37]: > 100 µM
TGI [38]: > 100 µM
TGI [39]: > 100 µM
TGI [40]: > 100 µM
TGI [41]: > 100 µM
TGI [42]: > 100 µM
TGI [43]: > 100 µM
TGI [44]: > 100 µM
TGI [45]: > 100 µM
TGI [46]: > 100 µM
TGI [47]: > 100 µM
TGI [48]: > 100 µM
TGI [49]: > 100 µM
TGI [50]: > 100 µM
TGI [51]: > 100 µM
TGI [52]: > 100 µM
TGI [54]: > 100 µM
TGI [59]: > 100 µM
TGI [56]: > 100 µM
